Test results: ChEMBL document CHEMBL1201862, “PubChem BioAssay data set” (2004)
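48-hour exposure; five concentrations; linearly interpolated endpoints. GI50 = concentration required for 50% inhibition of growth.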 Activity calls are given as the source filed them. No stated cut-off is given here; in the data, active = GI50 up to about 1.1 µM and inactive = higher.

Assays:
Experiment in all cases: NCI tumour cell line growth inhibition, 48 h
RPMI-8226 = system: RPMI-8226
LOX IMVI = system: LOX IMVI
HCC 2998 = system: HCC 2998
MOLT-4 = system: MOLT-4
COLO 205 = system: COLO 205
HCT-15 = system: HCT-15
CAKI-1 = system: CAKI-1
M14 = system: M14
SNB-75 = system: SNB-75
BT-549 = system: BT-549
Malme-3M = system: Malme-3M
SR = system: SR
PC-3 = system: PC-3
T47D = system: T47D
UO-31 = system: UO-31
U-251 = system: U-251
UACC-257 = system: UACC-257
HOP-62 = system: HOP-62
HCT-116 = system: HCT-116

SMILES | GI50 (RPMI-8226) | GI50 (LOX IMVI) | GI50 (HCC 2998) | GI50 (MOLT-4) | GI50 (COLO 205) | GI50 (HCT-15) [µM] | GI50 (CAKI-1) | GI50 (M14) | GI50 (SNB-75) | GI50 (BT-549) | GI50 (Malme-3M) | GI50 (SR) | GI50 (PC-3) | GI50 (T47D) | GI50 (UO-31) | GI50 (U-251) | GI50 (UACC-257) | GI50 (HOP-62) | GI50 (HCT-116)
O=[N+]([O-])c1ccc(N/N=C/c2ccc(OCCCCCCCCCCCO)cc2)c([N+](=O)[O-])c1 | 30.9 µM (inactive) | 7.64 µM (inactive) | 4.78 µM (inactive) | 29.3 µM (inactive) | 2.01 µM (inactive) | 9.12 | 3.34 µM (inactive) | 1.39 µM (inactive) | 1.94 µM (inactive) | 5.94 µM (inactive) | 1.72 µM (inactive) | 2.5 µM (inactive) | 2.45 µM (inactive) | 5.22 µM (inactive) | 7.35 µM (inactive) | 2.37 µM (inactive) | 4.91 µM (inactive) | 4.39 µM (inactive) | 17.4 µM (inactive)
Cc1cc(N(CCC#N)CCC#N)ccc1C(/N=N/c1ccc(C(=O)O)cc1)=N\NC(=O)c1ccccc1 | > 100 µM (inactive) | – | 17.3 µM (inactive) | 47.1 µM (inactive) | 28.5 µM (inactive) | 20.9 | > 100 µM (inactive) | 36.6 µM (inactive) | 34.3 µM (inactive) | 55.6 µM (inactive) | 22.5 µM (inactive) | 6.08 µM (inactive) | 26.1 µM (inactive) | 43.8 µM (inactive) | 42.7 µM (inactive) | 34.8 µM (inactive) | 65.2 µM (inactive) | 32.4 µM (inactive) | 35 µM (inactive)
COc1cc(OCc2ccc3nc(OC)c(OC)nc3c2)cc(OC)c1OC | > 10 µM (inactive) | > 10 µM (inactive) | > 10 µM (inactive) | > 10 µM (inactive) | > 10 µM (inactive) | > 10 | > 10 µM (inactive) | > 10 µM (inactive) | > 10 µM (inactive) | > 3.72 µM (inactive) | > 10 µM (inactive) | > 10 µM (inactive) | > 3.08 µM (inactive) | > 10 µM (inactive) | > 10 µM (inactive) | > 10 µM (inactive) | > 10 µM (inactive) | > 10 µM (inactive) | > 10 µM (inactive)
CCC1(CC)C(=O)NN(C(=O)c2ccccc2)C1=O | > 100 µM (inactive) | > 100 µM (inactive) | > 100 µM (inactive) | > 100 µM (inactive) | > 100 µM (inactive) | > 100 | > 100 µM (inactive) | > 100 µM (inactive) | 49.4 µM (inactive) | > 100 µM (inactive) | > 100 µM (inactive) | > 100 µM (inactive) | > 100 µM (inactive) | > 100 µM (inactive) | > 100 µM (inactive) | > 100 µM (inactive) | > 100 µM (inactive) | > 100 µM (inactive) | > 100 µM (inactive)
O=Cc1cc2c(o1)C(=O)c1ccccc1C2=O | 1.82 µM (inactive) | 0.267 µM (active) | 1.88 µM (inactive) | 2.06 µM (inactive) | 1.44 µM (inactive) | 0.281 | 2.84 µM (inactive) | 0.192 µM (active) | 0.434 µM (active) | 0.757 µM (active) | 0.153 µM (active) | 0.459 µM (active) | 2.53 µM (inactive) | 1.72 µM (inactive) | 1.42 µM (inactive) | 0.851 µM (active) | 0.569 µM (active) | 0.834 µM (active) | 0.312 µM (active)
CO/C=C(/C(=O)OC)c1ccccc1COc1cccc(C(F)(F)F)c1 | 0.408 µM (active) | 1.16 µM (inactive) | 10.8 µM (inactive) | 1.01 µM (active) | 6.61 µM (inactive) | 4.19 | 4.84 µM (inactive) | 68.7 µM (inactive) | 7.01 µM (inactive) | 6.28 µM (inactive) | 1.41 µM (inactive) | 0.646 µM (active) | 7.43 µM (inactive) | 15 µM (inactive) | 4.17 µM (inactive) | 3.22 µM (inactive) | 0.676 µM (active) | 12.6 µM (inactive) | 2.4 µM (inactive)
COP(=O)(OC)/C(=C/c1cn(C(c2ccccc2)(c2ccccc2)c2ccccc2)cn1)NC=O | 32 µM (inactive) | 15.9 µM (inactive) | 16.7 µM (inactive) | > 100 µM (inactive) | 15.4 µM (inactive) | 25.6 | 20.4 µM (inactive) | 15.1 µM (inactive) | 5.92 µM (inactive) | 16 µM (inactive) | 18.6 µM (inactive) | > 100 µM (inactive) | 17 µM (inactive) | 26.4 µM (inactive) | 12.9 µM (inactive) | 16.4 µM (inactive) | – | 17.7 µM (inactive) | 13.8 µM (inactive)
Cc1cc2c(c(C(=O)NCC(=O)O)c1)Oc1c(cc(C)cc1C(=O)NCC(=O)O)S2 | > 100 µM (inactive) | > 100 µM (inactive) | > 100 µM (inactive) | > 100 µM (inactive) | > 100 µM (inactive) | > 100 | > 100 µM (inactive) | > 100 µM (inactive) | > 100 µM (inactive) | > 100 µM (inactive) | > 100 µM (inactive) | > 100 µM (inactive) | > 100 µM (inactive) | > 100 µM (inactive) | – | > 100 µM (inactive) | > 100 µM (inactive) | > 100 µM (inactive) | > 100 µM (inactive)
CN(C)c1ccc(C(=NNC(=O)c2cc3ccccc3[nH]2)c2ccc(N(C)C)cc2)cc1 | 0.321 µM (active) | 0.811 µM (active) | 0.193 µM (active) | 0.293 µM (active) | 0.305 µM (active) | 0.156 | 0.971 µM (active) | 0.185 µM (active) | 0.632 µM (active) | 3.69 µM (inactive) | – | < 0.033 µM (active) | 0.598 µM (active) | > 23.8 µM (inactive) | 0.942 µM (active) | 0.348 µM (active) | 4.04 µM (inactive) | 1.77 µM (inactive) | 0.422 µM (active)
C[C@]12CCC(=O)C=C1CC[C@@H]1C2CC[C@]2(C)c3nn(-c4ccc(F)cc4)nc3CC12 (some centres undefined) | – | – | > 100 µM (inactive) | > 100 µM (inactive) | > 100 µM (inactive) | – | > 100 µM (inactive) | > 100 µM (inactive) | 38.1 µM (inactive) | > 100 µM (inactive) | > 100 µM (inactive) | > 100 µM (inactive) | > 100 µM (inactive) | > 100 µM (inactive) | > 100 µM (inactive) | 53.2 µM (inactive) | > 100 µM (inactive) | 76.2 µM (inactive) | > 100 µM (inactive)
CC(CO)(CO)N1C(=O)C2C3c4ccccc4C(c4ccccc43)C2C1=O (centres undefined) | – | – | > 100 µM (inactive) | > 100 µM (inactive) | > 100 µM (inactive) | > 100 | > 100 µM (inactive) | > 100 µM (inactive) | 25.4 µM (inactive) | 80.9 µM (inactive) | > 100 µM (inactive) | > 100 µM (inactive) | > 100 µM (inactive) | > 100 µM (inactive) | 65.2 µM (inactive) | > 100 µM (inactive) | > 100 µM (inactive) | > 100 µM (inactive) | > 100 µM (inactive)
O=C1Cc2c([nH]c3ccc(C(=O)O)cc23)-c2ccccc2N1 | > 100 µM (inactive) | > 100 µM (inactive) | > 100 µM (inactive) | > 100 µM (inactive) | > 100 µM (inactive) | > 100 | > 100 µM (inactive) | > 100 µM (inactive) | – | > 100 µM (inactive) | > 100 µM (inactive) | > 100 µM (inactive) | > 100 µM (inactive) | > 100 µM (inactive) | > 100 µM (inactive) | > 100 µM (inactive) | > 100 µM (inactive) | > 100 µM (inactive) | > 100 µM (inactive)
COc1cc(CNc2nc3ccccc3nc2C(=O)O)cc(OC)c1OC | > 100 µM (inactive) | > 100 µM (inactive) | > 100 µM (inactive) | > 100 µM (inactive) | > 100 µM (inactive) | > 100 | > 100 µM (inactive) | – | 76.7 µM (inactive) | > 100 µM (inactive) | > 100 µM (inactive) | 99.1 µM (inactive) | > 100 µM (inactive) | > 100 µM (inactive) | 49.2 µM (inactive) | > 100 µM (inactive) | > 100 µM (inactive) | > 100 µM (inactive) | > 100 µM (inactive)
CNn1c(-c2ccc(C)cc2)n[nH]c1=O | > 100 µM (inactive) | > 100 µM (inactive) | > 100 µM (inactive) | > 100 µM (inactive) | > 100 µM (inactive) | > 100 | > 100 µM (inactive) | > 100 µM (inactive) | – | > 100 µM (inactive) | > 100 µM (inactive) | 68.5 µM (inactive) | > 100 µM (inactive) | > 100 µM (inactive) | > 100 µM (inactive) | > 100 µM (inactive) | > 100 µM (inactive) | > 100 µM (inactive) | > 100 µM (inactive)
Cc1c(C)c(C)c(-n2c(=O)n(C)c(=O)n2C(C)(C)C)c(C)c1C | 89.5 µM (inactive) | > 100 µM (inactive) | > 100 µM (inactive) | > 100 µM (inactive) | > 100 µM (inactive) | > 100 | > 100 µM (inactive) | > 100 µM (inactive) | > 100 µM (inactive) | > 100 µM (inactive) | – | 85.9 µM (inactive) | > 100 µM (inactive) | > 100 µM (inactive) | > 100 µM (inactive) | > 100 µM (inactive) | > 100 µM (inactive) | – | > 100 µM (inactive)
COC(=O)c1c(O)ccc2c1c1c(n2Cc2ccccc2OC)C(=O)c2ccccc2C1=O | 1.86 µM (inactive) | 10.6 µM (inactive) | 6.27 µM (inactive) | 0.0393 µM (active) | 1.83 µM (inactive) | 5.16 | 15.8 µM (inactive) | 8.45 µM (inactive) | – | 13.3 µM (inactive) | 21 µM (inactive) | 0.0483 µM (active) | 10.4 µM (inactive) | 2.36 µM (inactive) | 5.42 µM (inactive) | 11 µM (inactive) | 22.9 µM (inactive) | 13.6 µM (inactive) | 5.46 µM (inactive)
